Values after ≈ are worked out from the molar mass of the structure shown. Like-named read-outs stand apart in the source and are kept apart here.
How the values were obtained:
[1] = test system: S. aureus 10-81; test: In vitro antibacterial MIC/MBC test; format: cell-based; details: Staphylococcus aureus, 1081
Protocol: (§1) Win 52,522 and Win 35,439 were solubilized in 0.1 ml of 0.5 N NaOH/mg of compound and diluted in sterile distilled water to 160 mcg/ml. Vancomycin and methicillin were solubilized in sterile distilled water to 1250 mcg/ml of base compound. The stock solutions were sterilized by filtration through membrane filters with a 0.45 μm pore size.
(§2) The bacterial cultures listed in Table I (hereinbelow) were grown overnight at 37° C. in MHB for all cultures except the Streptococcus strains. These were grown in BHI+10% NHS. The overnight broth cultures were adjusted to an optical density of 0.10 (650 nm, B L Spectronic 20) in sterile distilled water and subsequently diluted to 6.7×10^6 cells/ml in MHB or BHI+1% NHS.
(§3) Serial two-fold dilutions of the compound solutions were prepared in MHB (or in BHI+1% NHS for tests with Streptococci) and dispensed into 96-well microtiter trays in a volume of 0.1 ml/well using a Sandy Springs (Bellco Glass Co.) dispenser. The trays were then inoculated with 0.0015 ml of a suspension containing 6.7×10^6 cells/ml of the appropriate inoculum using a MIC-2000 inoculator (Dynatech Corp.) resulting in a final inoculum of approximately 1×10^4 cells/well or 1×10^5 cells/ml. The trays were incubated at 37° C. for 18-20 hours and the minimal inhibitory concentration (MIC), defined as the lowest concentration of compound to inhibit visible bacterial growth, was recorded.
(§4) After the MIC values were recorded, the contents in the microtiter trays were thoroughly mixed on a Bellco Mini-orbital Shaker (Bellco Glass Co.) for 3 min. at a setting of 8. A portion (0.0015 ml) from each well was then transferred via an MIC-2000 inoculator to plates containing MHA or BHI agar+10% NHS. The plates were incubated at 37° C. for 18-20 hrs. The minimal bactericidal concentration (MBC), defined as the lowest concentration of compound that prevented the formation of a recognizable colony on the agar surface, was recorded.

[2] = test system: S. aureus 13-8-A; test: In vitro antibacterial MIC/MBC test; format: cell-based; details: Staphylococcus aureus, 138A
Protocol: as §1, §2, §3, §4

[3] = test system: S. aureus S-500; test: In vitro antibacterial MIC/MBC test; format: cell-based; details: Staphylococcus aureus, S500
Protocol: as §1, §2, §3, §4

[4] = test system: S. aureus Smith; test: In vitro antibacterial MIC/MBC test; format: cell-based; details: Staphylococcus aureus
Protocol: as §1, §2, §3, §4

[5] = test system: S. aureus VA16951; test: In vitro antibacterial MIC/MBC test; format: cell-based; details: Staphylococcus aureus
Protocol: as §1, §2, §3, §4

[6] = test system: S. epidermidis (12228); test: In vitro antibacterial MIC/MBC test; format: cell-based; details: Staphylococcus epidermidis, ATCC12228
Protocol: as §1, §2, §3, §4

[7] = test system: S. epidermidis 2-1-B; test: In vitro antibacterial MIC/MBC test; format: cell-based; details: Staphylococcus epidermidis, 21B
Protocol: as §1, §2, §3, §4

[8] = test system: S. faecalis 4510; test: In vitro antibacterial MIC/MBC test; format: cell-based; details: Enterococcus faecalis
Protocol: as §1, §2, §3, §4

[9] = test system: S. aureus; test: In vitro MIC/MBC summary (Table II); format: cell-based; details: Staphylococcus aureus; for MIC50: read-out: MIC 50%; for MIC90: read-out: MIC 90%; for MIC: read-out: MIC Range
Protocol: as §1, §2, §3, §4

[10] = test system: Streptococcus sp.; test: In vitro MIC/MBC summary (Table II); format: cell-based; details: for MIC: read-out: MIC Range
Protocol: as §1, §2, §3, §4

[11] = test system: S. edidermidis; test: In vitro MIC/MBC summary (Table II); format: cell-based, S. epidermidis; details: Staphylococcus epidermidis; for MIC: read-out: MIC Range
Protocol: as §1, §2, §3, §4

[12] = test system: Staphylococcus aureus 39881 (Methicillin-resistant); test: Mouse protection test, S. aureus 39881 (methicillin-resistant) infection; format: in vivo, ICR mice; Staphylococcus aureus; details: for Survivors/Total: two doses; for ED50: Staphylococcus aureus, 168 h, read-out: Protective Dose 50% (95% Confidence Limits)
Protocol: ICR mice, female, 18-20 grams each.
Solutions of Win 52,522 and Win 35,439 were prepared by dissolving the appropriate weight of drug in 0.3 to 0.4 ml of 1 N NaOH and then bringing the solutions to the desired volume with distilled water. Methicillin and vancomycin were dissolved directly in distilled water.
The culture was streaked onto three Brain Heart Infusion Agar plates and incubated 16 hours at 37° C. The cells were washed off each plate with five ml of saline and the cell suspension was shaken with glass beads for two minutes on a paint shaker. The suspension was diluted with saline so that a […] gave a 44% T reading on a B+L Spectronic 20 (650 nm) calibrated with saline. The stock suspension was diluted 1:24 (10 ml stock suspension+230 ml 5% mucin) to obtain the test inoculum containing 1.55×10^9 cells/ml.
Mice were inoculated intraperitoneally with 0.5 ml of the bacterial test inoculum.
Mice were medicated twice: at one-half and four hours postinfection. The drugs were administered by both subcutaneous (0.2 ml) and oral (0.5 ml) routes.
Deaths were recorded daily for seven days for all tests. Fifty percent protective dose values (PD50's) were calculated using probit analysis [SAS Users Guide: Statistics, 1982 Edition, SAS Institute, Inc., Cary, N.C.].

Compound: CN[C@H](CC(C)C)C(=O)N[C@H]1C(=O)N[C@@H](CC(N)=O)C(=O)N[C@H]2C(=O)N[C@H]3C(=O)N[C@H](C(=O)N[C@H](C(=O)O)c4cc(O)cc(O)c4-c4cc3ccc4O)[C@H](O)c3ccc(c(Cl)c3)Oc3cc2cc(c3O[C@@H]2O[C@H](CO)[C@@H](O)[C@H](O)[C@H]2O[C@H]2C[C@](C)(N)[C@H](O)[C@H](C)O2)Oc2ccc(cc2Cl)[C@H]1O [Vancomycin]
- MBC [1]: 1 µg/mL (≈ 0.69 µM)
- MIC [1]: 1 µg/mL (≈ 0.69 µM)
- MBC [2]: 0.5 µg/mL (≈ 0.345 µM)
- MIC [2]: 0.5 µg/mL (≈ 0.345 µM)
- MBC [3]: 1 µg/mL (≈ 0.69 µM)
- MIC [3]: 1 µg/mL (≈ 0.69 µM)
- MBC [4]: 1 µg/mL (≈ 0.69 µM)
- MIC [4]: 1 µg/mL (≈ 0.69 µM)
- MBC ([5]; VA16951): 1 µg/mL (≈ 0.69 µM)
- MIC ([5]; VA16951): 1 µg/mL (≈ 0.69 µM)
- MBC [6]: 1 µg/mL (≈ 0.69 µM)
- MIC [6]: 1 µg/mL (≈ 0.69 µM)
- MBC [7]: 2 µg/mL (≈ 1.38 µM)
- MIC [7]: 1 µg/mL (≈ 0.69 µM)
- MBC [8]; 4510: > 125 µg/mL
- MIC [8]; 4510: 2 µg/mL (≈ 1.38 µM)
- MBC ([9]; 15 S. aureus strains, read-out: MBC 50%): 1 µg/mL (≈ 0.69 µM)
- MBC ([9]; 15 S. aureus strains, read-out: MBC 90%): 1 µg/mL (≈ 0.69 µM)
- MBC ([9]; 15 S. aureus strains, read-out: MBC Range): 0.5 to 1 µg/mL (≈ 0.345 to 0.69 µM)
- MIC50 ([9]; 15 S. aureus strains): 1 µg/mL (≈ 0.69 µM)
- MIC90 ([9]; 15 S. aureus strains): 1 µg/mL (≈ 0.69 µM)
- MIC ([9]; 15 S. aureus strains): 0.5 to 1 µg/mL (≈ 0.345 to 0.69 µM)
- MIC50 ([10]; Streptococcus): 2 µg/mL (≈ 1.38 µM)
- MIC90 ([10]; Streptococcus): 16 µg/mL (≈ 11 µM)
- MBC ([10]; Streptococcus, read-out: MBC 50%): 16 µg/mL (≈ 11 µM)
- MBC ([10]; Streptococcus, read-out: MBC 90%): > 125 µg/mL
- MIC ([10]; Streptococcus): 0.06 to 16 µg/mL (≈ 0.0414 to 11 µM)
- MIC50 [11]: 1 µg/mL (≈ 0.69 µM)
- MIC90 [11]: 1 µg/mL (≈ 0.69 µM)
- MBC ([11]; read-out: MBC 50%): 1 µg/mL (≈ 0.69 µM)
- MBC ([11]; read-out: MBC 90%): 2 µg/mL (≈ 1.38 µM)
- MBC ([11]; read-out: MBC Range): 1 to 2 µg/mL (≈ 0.69 to 1.38 µM)
- MIC [11]: 1 to 2 µg/mL (≈ 0.69 to 1.38 µM)
- Survivors/Total ([12]; 6.25 mg/kg sc): 0/10
- Survivors/Total ([12]; 12.5 mg/kg sc): 1/10
- Survivors/Total ([12]; 25 mg/kg sc): 9/10
- Survivors/Total ([12]; 50 mg/kg sc): 10/10
- ED50 ([12]; sc): 17.7 mg/kg

Compound: CCn1cc(C(=O)O)c(=O)c2ccc(-c3cc(C)nc(C)c3)cc21 [Win 35,439, 1-ethyl-1,4-dihydro-7-(2,6-dimethyl-4-pyridinyl)-4-oxo-3-quinolinecarboxylic acid]
- MBC ([1]; S. aureus 10-81, read-out: MBC): 0.125 µg/mL (≈ 0.388 µM)
- MIC ([1]; S. aureus 10-81, read-out: MIC): 0.125 µg/mL (≈ 0.388 µM)
- MBC ([2]; S. aureus 13-8-A, read-out: MBC): 0.125 µg/mL (≈ 0.388 µM)
- MIC ([2]; S. aureus 13-8-A, read-out: MIC): 0.06 µg/mL (≈ 0.186 µM)
- MBC ([3]; S. aureus S-500, read-out: MBC): 0.25 µg/mL (≈ 0.776 µM)
- MIC ([3]; S. aureus S-500, read-out: MIC): 0.125 µg/mL (≈ 0.388 µM)
- MBC ([4]; S. aureus Smith, read-out: MBC): 0.125 µg/mL (≈ 0.388 µM)
- MIC ([4]; S. aureus Smith, read-out: MIC): 0.125 µg/mL (≈ 0.388 µM)
- MBC ([5]; S. aureus VA16951, read-out: MBC): 0.06 µg/mL (≈ 0.186 µM)
- MIC ([5]; S. aureus VA16951, read-out: MIC): 0.06 µg/mL (≈ 0.186 µM)
- MBC ([6]; S. epidermidis ATCC No. 12228, read-out: MBC): 0.25 µg/mL (≈ 0.776 µM)
- MIC ([6]; S. epidermidis ATCC No. 12228, read-out: MIC): 0.25 µg/mL (≈ 0.776 µM)
- MBC ([7]; S. epidermidis 2-1-B, read-out: MBC): 0.25 µg/mL (≈ 0.776 µM)
- MIC ([7]; S. epidermidis 2-1-B, read-out: MIC): 0.25 µg/mL (≈ 0.776 µM)
- MBC ([8]; S. faecalis 4510, read-out: MBC): 0.5 µg/mL (≈ 1.55 µM)
- MIC ([8]; S. faecalis 4510, read-out: MIC): 0.5 µg/mL (≈ 1.55 µM)
- MBC ([9]; read-out: MBC 50%): 0.25 µg/mL (≈ 0.776 µM)
- MBC ([9]; read-out: MBC 90%): 0.5 µg/mL (≈ 1.55 µM)
- MBC ([9]; read-out: MBC Range): 0.125 to 0.5 µg/mL (≈ 0.388 to 1.55 µM)
- MIC50 ([9]; 15 S. aureus strains): 0.06 µg/mL (≈ 0.186 µM)
- MIC90 ([9]; 15 S. aureus strains): 0.125 µg/mL (≈ 0.388 µM)
- MIC ([9]; 15 S. aureus strains): 0.03 to 0.125 µg/mL (≈ 0.0931 to 0.388 µM)
- MBC ([10]; 9 Streptococcus sp. strains, read-out: MBC 50%): 2 µg/mL (≈ 6.2 µM)
- MBC ([10]; 9 Streptococcus sp. strains, read-out: MBC 90%): > 16 µg/mL
- MIC50 ([10]; 9 Streptococcus sp. strains, read-out: MIC 50%): 2 µg/mL (≈ 6.2 µM)
- MIC90 ([10]; 9 Streptococcus sp. strains, read-out: MIC 90%): 4 µg/mL (≈ 12.4 µM)
- MIC ([10]; 9 Streptococcus sp. strains): 0.5 to 4 µg/mL (≈ 1.55 to 12.4 µM)
- MBC ([11]; 5 S. edidermidis strains, read-out: MBC 50%): 0.25 µg/mL (≈ 0.776 µM)
- MBC ([11]; 5 S. edidermidis strains, read-out: MBC 90%): 0.25 µg/mL (≈ 0.776 µM)
- MBC ([11]; 5 S. edidermidis strains, read-out: MBC Range): 0.25 to 0.5 µg/mL (≈ 0.776 to 1.55 µM)
- MIC50 ([11]; 5 S. edidermidis strains, read-out: MIC 50%): 0.25 µg/mL (≈ 0.776 µM)
- MIC90 ([11]; 5 S. edidermidis strains, read-out: MIC 90%): 0.25 µg/mL (≈ 0.776 µM)
- MIC ([11]; 5 S. edidermidis strains): 0.25 to 0.5 µg/mL (≈ 0.776 to 1.55 µM)
- Survivors/Total ([12]; 1.56 mg/kg po): 1/10
- Survivors/Total ([12]; 1.56 mg/kg sc): 0/10
- Survivors/Total ([12]; 3.13 mg/kg po): 0/10
- Survivors/Total ([12]; 3.13 mg/kg sc): 0/10
- Survivors/Total ([12]; 6.25 mg/kg po): 3/10
- Survivors/Total ([12]; 6.25 mg/kg sc): 9/10
- Survivors/Total ([12]; 12.5 mg/kg po): 10/10
- Survivors/Total ([12]; 12.5 mg/kg sc): 7/10
- ED50 ([12]; po, two doses one-half and four hours postinfection): 7.2 mg/kg
- ED50 ([12]; sc, two doses one-half and four hours postinfection): ~4.9 mg/kg

Reference: patent US4698350A, “1-ethyl-6-fluoro-1,4-dihydro- 7-(2,6-dimethyl-4-pyridinyl)-4-oxo-3-quinolinecarboxylic acid and antibacterial use thereof” (Sterling Drug Inc., priority 1984, dated 1987)
